Laboratory results reported in EP2396329B1, “COMPOUNDS FOR THE TREATMENT OF HEPATITIS C” (priority 2009, dated 2010).
Like-named read-outs stand apart in the source and are kept apart here.

Key:
[1] = target: T1, HCV NS5B (Hepatitis C virus genotype 1b, UniProt Q9WMX2); experiment: HCV NS5B RdRp enzyme assay (standard or modified); format: biochemical
T1 construct: The protein was expressed with an 18 amino acid C-terminal truncation to enhance the solubility; made in house; host or cells: E. coli BL21(DE3)
Procedure: HCV NS5B RdRp cloning, expression, and purification. The cDNA encoding the NS5B protein of HCV, genotype 1b, was cloned into the pET21a expression vector. The protein was expressed with an 18 amino acid C-terminal truncation to enhance the solubility. The E. coli competent cell line BL21(DE3) was used for expression of the protein. Cultures were grown at 37 °C for ~ 4 hours until the cultures reached an optical density of 2.0 at 600 nm. The cultures were cooled to 20 °C and induced with I mM IPTG. Fresh ampicillin was added to a final concentration of 50 µg/ml and the cells were grown overnight at 20 °C.
Cell pellets (3L) were lysed for purification to yield 15-24 mgs of purified NS5B. The lysis buffer consisted of 20 mM Tris-HCl, pH 7.4, 500 mM NaCl, 0.5% triton X-100, 1 mM DTT, 1mM EDTA, 20% glycerol, 0.5 mg/ml lysozyme, 10 mM MgCl2, 15 ug/ml deoxyribonuclease I, and Complete TM protease inhibitor tablets (Roche). After addition of the lysis buffer, frozen cell pellets were resuspended using a tissue homogenizer. To reduce the viscosity of the sample, aliquots of the lysate were sonicated on ice using a microtip attached to a Branson sonicator. The sonicated lysate was centrifuged at 100,000 x g for 1hr at 4 °C and filtered through a 0.2 µm filter unit (Corning).
The protein was purified using three sequential chromatography steps: Heparin sepharose CL-6B, polyU sepharose 4B, and Hitrap SP sepharose (Pharmacia). The chromatography buffers were identical to the lysis buffer but contained no lysozyme, deoxyribonuclease I, MgCl2 or protease inhibitor and the NaCl concentration of the buffer was adjusted according to the requirements for charging the protein onto the column. Each column was eluted with a NaCl gradient which varied in length from 5-50 column volumes depending on the column type. After the final chromatography step, the resulting purity of the enzyme is >90% based on SDS-PAGE analysis. The enzyme was aliquoted and stored at -80 °C.
Standard HCV NS5B RdRp enzyme assay. HCV RdRp genotype 1b assays were run in a final volume of 60 µl in 96 well plates (Costar 3912). The assay buffer is composed of 20 mM Hepes, pH 7.5, 2.5 mM KCI, 2.5 mM MgCl2, 1 mM DTT, 1.6 U RNAse inhibitor (Promega N2515), 0.1 mg/ml BSA (Promega R3961), and 2 % glycerol. All compounds were serially diluted (3-fold) in DMSO and diluted further in water such that the final concentration of DMSO in the assay was 2%. HCV RdRp genotype Ib enzyme was used at a final concentration of 28 nM. A polyA template was used at.6 nM, and a biotinylated oligo-dT12 primer was used at 180 nM final concentration. Template was obtained commercially (Amersham 27-4110). Biotinylated primer was prepared by Sigma Genosys. 3H-UTP was used at 0.6 µCi (0.29 µM total UTP). Reactions were initiated by the addition of enzyme, incubated at 30 °C for 60 min, and stopped by adding 25 µl of 50 mM EDTA containing SPA beads (4 µg/µl, Amersham RPNQ 0007). Plates were read on a Packard Top Count NXT after > 1hr incubation at room temperature.
Modified HCV NS5B RdRp enzyme assay. A modified enzyme assay was performed essentially as described for the standard enzyme assay except for the following: The biotinylated oligo dT12 primer was precaptured on streptavidin-coated SPA beads by mixing primer and beads in assay buffer and incubating at room temperature for one hour. Unbound primer was removed after centrifugation. The primer-bound beads were resuspended in 20 mM Hepes buffer, pH 7.5 and used in the assay at final concentrations of 20 nM primer and 0.67 µg/µl beads. Order of addition in the assay: enzyme (14 nM) was added to diluted compound followed by the addition of a mixture of template (0.2 nM), 3H-UTP (0.6 µCi, 0.29 µM), and primer-bound beads, to initiate the reaction; concentrations given are final. Reactions were allowed to proceed for 4 hours at 30° C.
IC50 values for compounds were determined using seven different [I]. […]

[2] = tested on: HCV replicon; experiment: HCV replicon assay (FRET or luciferase readout); format: cell-based; conditions: Hepatitis C virus
Excerpt: FRET Assay Preparation. To perform the HCV FRET screening assay, 96-well cell culture plates were used. The FRET peptide (Anaspec, Inc.) (Taliani et al., Anal. Biochem. 1996, 240, 60-67) contains a fluorescence donor, EDANS, near one end of the peptide and an acceptor, DABCYL, near the other end. The fluorescence of the peptide is quenched by […] resonance energy transfer (RET) between the donor and the acceptor, but as the NS3 protease cleaves the peptide the products are released from RET quenching and the fluorescence of the donor becomes apparent. The assay reagent was made as follows: 5X cell Luciferase cell culture lysis reagent from Promega (#E153A) diluted to 1X with dH2O, NaCl added to 150 mM final, the FRET peptide diluted to 20 µM final from a 2 mM stock.
To prepare plates, HCV replicon cells, with or without a Renilla luciferase reporter gene, were trypsinized and placed into each well of a 96-well plate with titrated test compounds added in columns 3 through 12; columns 1 and 2 contained a control compound (HCV protease inhibitor), and the bottom row contained cells without compound. The plates were then placed in a CO2 incubator at 37 °C.
Assays. Subsequent to addition of the test compounds described above (FRET Assay Preparation), at various times the plate was removed and Alamar blue solution (Trek Diagnostics, #00-100) was added per well as a measure of cellular toxicity. After reading in a Cytoflour 4000 instrument (PE Biosystems), plates were rinsed with PBS and then used for FRET assay by the addition of 30 ul of the FRET peptide assay reagent described above (FRET Assay Preparation) per well. The plate was then placed into the Cytoflour 4000 instrument which had been set to 340 excite/490 emission, automatic mode for 20 cycles and the plate read in a kinetic mode. Typically, the signal to noise using an endpoint analysis after the reads was at least three-fold. Alternatively, after Alamar blue reading, plates were rinsed with PBS, 50 ul of DMEM (high glucose) without phenol red was added and plates were then used for luciferase assay using the Promega Dual-Glo Luciferase Assay System.
Compound analysis was determined by quantification of the relative HCV replicon inhibition and the relative cytotoxicity values. To calculate cytoxicity values, the average Alamar Blue fluorescence signals from the control wells were set as 100% non-toxic. The individual signals in each of the compound test wells were then divided by the average control signal and multiplied by 100% to determine […]. To calculate the HCV replicon inhibition values, an average background value was obtained from the two wells containing the highest amount of HCV protease inhibitor at the end of the assay period. These numbers were similar to those obtained from naïve Huh-7 cells.
The background numbers were then subtracted from the average signal obtained from the control wells and this number was used as 100% activity. The individual signals in each of the compound test wells were then divided by the averaged control values after background subtraction and multiplied by 100% to determine percent activity. EC50 values for a protease inhibitor titration were calculated as the concentration which caused a 50% reduction in FRET or luciferase activity. The two numbers generated for the compound plate, percent cytoxicity and percent activity were used to determine compounds of interest for further analysis.

[3] = HCV NS5B RdRp enzyme, genotype 1b, read-out: IC50
[4] = HCV replicon cells, FRET or luciferase activity, read-out: EC50

T1 sequence (Q9WMX2 2420-2992): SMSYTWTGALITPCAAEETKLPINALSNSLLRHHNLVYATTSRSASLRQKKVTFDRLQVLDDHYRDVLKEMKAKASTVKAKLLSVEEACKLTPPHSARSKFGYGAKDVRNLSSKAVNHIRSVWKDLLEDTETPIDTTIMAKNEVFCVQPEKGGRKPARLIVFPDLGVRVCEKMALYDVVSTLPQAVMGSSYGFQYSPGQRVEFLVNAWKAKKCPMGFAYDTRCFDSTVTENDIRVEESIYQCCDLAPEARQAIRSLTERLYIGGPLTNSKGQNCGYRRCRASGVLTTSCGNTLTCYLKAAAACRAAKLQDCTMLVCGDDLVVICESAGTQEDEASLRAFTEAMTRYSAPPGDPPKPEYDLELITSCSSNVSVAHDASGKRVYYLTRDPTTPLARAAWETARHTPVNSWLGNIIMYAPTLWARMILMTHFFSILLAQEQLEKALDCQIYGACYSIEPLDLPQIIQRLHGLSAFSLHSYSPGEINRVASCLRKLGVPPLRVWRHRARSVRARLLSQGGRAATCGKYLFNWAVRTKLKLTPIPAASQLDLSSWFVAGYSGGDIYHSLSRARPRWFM

| SMILES | IC50 [1] [nM] | EC50 [2] [nM] | IC50 [1, 3] [nM] | EC50 [2, 4] [nM] |
| --- | --- | --- | --- | --- |
| COc1ccc2c(c1)C=C(c1c(C(=O)N3CC4CCC(C3)O4)cnn1CC(F)(F)F)Cn1c-2c(C2CCCCC2)c2ccc(C(=O)NS(=O)(=O)C(C)C)cc21 | 1 to 500 | 1 to 500 |  |  |
| CCn1nc(C)c(C2=Cc3cc(OC)ccc3-c3c(C4CCCCC4)c4ccc(C(=O)NS(=O)(=O)C(C)C)cc4n3C2)c1C(=O)N1C[C@@H](C)N(C)[C@@H](C)C1 |  |  | 1 to 500 | 1 to 500 |
| CCOC(=O)c1c(C)nn(CC)c1C1=Cc2cc(OC)ccc2-c2c(C3CCCCC3)c3ccc(C(=O)NS(=O)(=O)C(C)C)cc3n2C1 |  |  | 1 to 500 | > 500 |
| COc1ccc2c(c1)C=C(c1c(C(=O)N3C[C@@H](C)O[C@@H](C)C3)ncn1C(C)C)Cn1c-2c(C2CCCCC2)c2ccc(C(=O)NS(=O)(=O)C(C)C)cc21 |  |  | 1 to 500 | 1 to 500 |
| COc1ccc2c(c1)C=C(c1ncn(C(C)C)c1C(=O)N1C[C@@H](C)O[C@@H](C)C1)Cn1c-2c(C2CCCCC2)c2ccc(C(=O)NS(=O)(=O)N(C)C)cc21 |  |  | 1 to 500 | 1 to 500 |
| CCN1CC2CC1CN2C(=O)c1c(C)nn(CC)c1C1=Cc2cc(OC)ccc2-c2c(C3CCCCC3)c3ccc(C(=O)NS(=O)(=O)C(C)C)cc3n2C1 (stereo not shown) |  | 1 to 500 | 1 to 500 |  |
| COc1ccc2c(c1)C=C(c1c(C(=O)N3CCN(C)CC3)cnn1CC(F)(F)F)Cn1c-2c(C2CCCCC2)c2ccc(C(=O)NS(=O)(=O)C(C)C)cc21 |  |  | 1 to 500 | 1 to 500 |
| CCOC(=O)c1c(C)nn(CC)c1C1=Cc2cc(OC)ccc2-c2c(C3CCCCC3)c3ccc(C(N)=O)cc3n2C1 |  |  | 1 to 500 | > 500 |
| CCn1nc(C)c(C(=O)N2CCOCC2)c1C1=Cc2cc(OC)ccc2-c2c(C3CCCCC3)c3ccc(C(=O)NS(=O)(=O)C(C)C)cc3n2C1 |  |  | 1 to 500 | 1 to 500 |
| CCn1ncc(C(=O)N2C[C@@H](C)O[C@@H](C)C2)c1C1=Cc2cc(OC)ccc2-c2c(C3CCCCC3)c3ccc(C(=O)NS(=O)(=O)C(C)C)cc3n2C1 |  |  | 1 to 500 | 1 to 500 |
| COc1ccc2c(c1)C=C(c1c(C(=O)N3C[C@@H](C)O[C@@H](C)C3)nnn1C(C)C)Cn1c-2c(C2CCCCC2)c2ccc(C(=O)NS(=O)(=O)N(C)C)cc21 |  |  | 1 to 500 | 1 to 500 |
| CCOC(=O)c1c(C)nn(CC)c1C1=Cc2cc(OC)ccc2-c2c(C3CCCCC3)c3ccc(C(=O)O)cc3n2C1 |  |  | 1 to 500 | > 500 |
| COc1ccc2c(c1)C=C(c1c(C(=O)N3CCOCC3)ncn1C(C)C)Cn1c-2c(C2CCCCC2)c2ccc(C(=O)NS(=O)(=O)C(C)C)cc21 |  |  | 1 to 500 | 1 to 500 |
| COc1ccc2c(c1)C=C(c1c(C(=O)N3CCN(C)CC3)cnn1C(C)C)Cn1c-2c(C2CCCCC2)c2ccc(C(=O)NS(=O)(=O)C(C)C)cc21 |  |  | 1 to 500 | 1 to 500 |
| COc1ccc2c(c1)C=C(c1c(C(=O)N3CCN(C)CC3)c(C)nn1C)Cn1c-2c(C2CCCCC2)c2ccc(C(=O)NS(=O)(=O)C(C)C)cc21 |  |  | 1 to 500 | 1 to 500 |
| COc1ccc2c(c1)C=C(c1c(C(=O)N3CCOCC3)nnn1C(C)C)Cn1c-2c(C2CCCCC2)c2ccc(C(=O)NS(=O)(=O)N(C)C)cc21 |  |  | 1 to 500 | 1 to 500 |
| COc1ccc2c(c1)C=C(c1c(C(=O)N3CCN(C)CC(F)(F)C3)nnn1C(C)C)Cn1c-2c(C2CCCCC2)c2ccc(C(=O)NS(=O)(=O)N(C)C)cc21 |  |  | 1 to 500 | 1 to 500 |
| CCn1nc(C)c(C(=O)N2C[C@@H](C)O[C@@H](C)C2)c1C1=Cc2cc(OC)ccc2-c2c(C3CCCCC3)c3ccc(C(=O)NS(=O)(=O)C4CC4)cc3n2C1 |  |  | 1 to 500 | 1 to 500 |
| CCn1ncc(C(=O)N2CC3CCC(C2)N3C)c1C1=Cc2cc(OC)ccc2-c2c(C3CCCCC3)c3ccc(C(=O)NS(=O)(=O)C(C)C)cc3n2C1 | 1 to 500 | 1 to 500 |  |  |
| COc1ccc2c(c1)C=C(c1ncn(C(C)C)c1C(=O)N1CCOCC1)Cn1c-2c(C2CCCCC2)c2ccc(C(=O)NS(=O)(=O)N(C)C)cc21 |  |  | 1 to 500 | 1 to 500 |
| COc1ccc2c(c1)C=C(c1nn(C(C)C)c(C)c1C(=O)N1C[C@@H](C)N(C)[C@@H](C)C1)Cn1c-2c(C2CCCCC2)c2ccc(C(=O)NS(=O)(=O)C(C)C)cc21 |  |  | 1 to 500 | 1 to 500 |
| CCn1ncc(C(=O)N2C3CCC2CN(C)C3)c1C1=Cc2cc(OC)ccc2-c2c(C3CCCCC3)c3ccc(C(=O)NS(=O)(=O)C(C)C)cc3n2C1 | 1 to 500 | 1 to 500 |  |  |
| COc1ccc2c(c1)C=C(c1c(C(=O)N3C[C@@H](C)O[C@@H](C)C3)nnn1C(C)C)Cn1c-2c(C2CCCCC2)c2ccc(C(=O)NS(=O)(=O)C(C)C)cc21 |  |  | 1 to 500 | 1 to 500 |
